IC50 data for 4 molecules are collected here from US8258140B2 (Astrazeneca AB, priority 2009, dated 2012).

The assay concerns the target T1, isolated rat AR-LBD (Rattus norvegicus, UniProt P15207).
T1 construct: purchased Invitrogen PV4293
T1 sequence (P15207 651-882 limits assumed): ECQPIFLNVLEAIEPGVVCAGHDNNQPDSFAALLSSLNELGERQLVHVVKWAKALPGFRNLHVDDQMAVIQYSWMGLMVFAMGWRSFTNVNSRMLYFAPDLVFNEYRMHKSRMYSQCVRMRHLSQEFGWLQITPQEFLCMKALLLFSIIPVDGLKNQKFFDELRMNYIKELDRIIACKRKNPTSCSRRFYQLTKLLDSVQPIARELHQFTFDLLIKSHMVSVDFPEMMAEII
Description: Androgen Receptor Ligand Binding Domain Competitive Binding Assay (fluorescence polarisation, PolarScreen). As to conditions: FP, 12 nM AR-LBD, 2 nM fluormone, 4-6 hours at room temperature, 50% reduction in tracer binding; read-out: Androgen Receptor Ligand Binding Domain Competitive Binding Assay (b) IC50/μM. The procedure:
The ability of compounds to bind to isolated Androgen Receptor Ligand binding domain (AR-LBD) was assessed in competition assays using a Fluorescence Polarisation (FP) detection end-point.
For the FP test, an assay test kit was purchased from Invitrogen and used to measure compound binding to the isolated rat AR-LBD which shares 100% sequence identity to the human AR-LBD. The Invitrogen PolarScreen™ Androgen Receptor Competitor Assay Red (Product Code No. PV4293), is a fluorescence polarisation (FP)—based competition assay which measures if test compound can displace a fluorescently-labelled tracer compound. If the test compound binds to the AR-LBD it will prevent the formation of the receptor/tracer complex, which will result in a low polarisation value.
The assay was performed as follows with all reagent additions carried out using the Thermo Scientific Matrix PlateMate: • 1. Acoustic dispense 120 nl of the test compound into a black low volume 384 well assay plates. • 2. Volumes of reagents are added to give the following final concentrations of assay components:—0.5 mM DTT, 2 nM fluormone, 12 nM AR-LBD in the Invitrogen Assay Buffer • 3. Dispense 15 μl of the assay mix into each well of the assay plate • 4. Cover the assay plate to protect the reagents from light and evaporation, and incubate at room temperature for 4-6 hours. • 5. Excite at […] and measure the fluorescent emission signal of each well at 590 nm in FP mode using the BMG PheraSTAR or other suitable plate reader.
Compounds were dosed directly from a compound source microplate containing serially diluted compound (4 wells containing 10 mM, 0.1 mM, 1 μM and 10 nM final compound respectively) to an assay microplate using an Labcyte Echo 550. The Echo 550 is a liquid handler that uses acoustic technology to perform direct microplate-to-microplate transfers of DMSO compound solutions and the system can be programmed to transfer multiple small nL volumes of compound from the different source plate wells to give the desired serial dilution of compound in the assay which is then back-filled to normalise the DMSO concentration across the dilution range. In total 120 nL of compound plus DMSO was added to each well and compounds tested in a 12-point concentration response format over a final compound concentration range of 100, 30, 10, 3, 1, 0.3, 0.1, 0.03, 0.01, 0.003, 0.001, 0.0001 μM, respectively.
FP dose response data obtained with each compound was exported into a suitable software package (such as Origin) to perform curve fitting analysis. Competitive AR binding may be expressed as an IC50 value. This is determined by calculation of the concentration of compound that is required to give a 50% reduction in tracer compound binding to AR-LBD.
For the molecule `CC(=O)N1CCN(CCCOc2ccc(C3CCN(C4=Nn5c(nnc5C(F)(F)F)CC4)CC3)cc2)CC1` [Example 4.1, 6-[4-[4-[3-(4-acetylpiperazin-1-yl)propoxy]phenyl]piperidin-1-yl]-3-(trifluoromethyl)-7,8-dihydro[1,2,4]triazolo[4,3-b]pyridazine], the IC50 was 23.8 µM.
On to `CC(=O)N1CCN(CCOc2ccc(C3CCN(C4=Nn5c(nnc5C(F)(F)F)CC4)CC3)cc2)CC1` [Example 5.1, 6-(4-{4-[2-(4-acetylpiperazin-1-yl)ethoxy]phenyl}piperidin-1-yl)-3-(trifluoromethyl)-7,8-dihydro[1,2,4]triazolo[4,3-b]pyridazine], for which the IC50 was determined as 22.9 µM.
Next, `CN1CCN(CCOc2ccc(C3CCN(C4=Nn5c(nnc5C(F)(F)F)CC4)CC3)cc2)CC1=O` [Example 37, 1-methyl-4-[2-(4-{1-[3-(trifluoromethyl)-7,8-dihydro[1,2,4]triazolo[4,3-b]pyridazin-6-yl]piperidin-4-yl}phenoxy)ethyl]piperazin-2-one]: 61.9 µM; `CC(=O)N1CCN(CCOc2ccc(C3CCN(C4=Nn5c(nnc5C(F)(F)F)CC4)CC3)cc2)C[C@H]1C` [Example 51, 6-[4-(4-{2-[(3R)-4-acetyl-3-methylpiperazin-1-yl]ethoxy}phenyl)piperidin-1-yl]-3-(trifluoromethyl)-7,8-dihydro[1,2,4]triazolo[4,3-b]pyridazine]: 30.3 µM.
